ChEMBL document CHEMBL3763029, “Heptapeptide ligands against receptor-binding sites of influenza hemagglutinin toward anti-influenza therapy” (Bioorg Med Chem, 2016)
Activity calls are given as the source filed them. The calls are words filed in the database; no cut-off is given here. Peptide text beside a SMILES is read from it. * marks the point of attachment. Biotinyl(3aR,4S,6aS) = O=C1N[C@H]2[C@H](CCCCC(=O)*)SC[C@H]2N1; Biotin = O=C1N[C@H]2[C@H](CS[C@H]2CCCCC(=O)*)N1; Stearoyl = CCCCCCCCCCCCCCCCCC(=O)*

Assays:
[1] = test system: Influenza A virus (A/Wyoming/03/2003(H3N2)); test: (§1) Binding affinity to Influenza A virus (A/Wyoming/03/2003(H3N2)) H3 hemagglutinin after 2 hrs by avidin-biotin-peroxidase complex method
[2] = test system: H3N2 subtype; test: Antiviral activity against Influenza A virus (A/Aichi/2/68(H3N2)) infected in MDCK cells assessed as inhibition of plaque formation pretreated with virus for 30 mins followed by host cell infection for 30 mins measured after 2 days by crystal violet staining assay; format: functional, organism-based; conditions: A/Aichi/2/1968(H3N2)
[3] = test system: Influenza A virus; test: Antiviral activity against Influenza A virus (A/Puerto Rico/8/34(H1N1)) infected in MDCK cells assessed as inhibition of plaque formation pretreated with virus for 30 mins followed by host cell infection for 30 mins measured after 2 days by crystal violet staining assay; format: functional, organism-based; conditions: A/Puerto Rico/8/1934(H1N1)
[4] = (§2) Binding affinity to Influenza A virus (A/New Caledonia/20/99 (H1N1)) H1 hemagglutinin after 2 hrs by avidin-biotin-peroxidase complex method; parameters: species or system Influenza A virus (A/New Caledonia/20/1999(H1N1))
[5] = test system: Influenza A virus (A/New Caledonia/20/1999(H1N1)); test: as §2
[6] = as §1
[7] = test system: Influenza A virus (A/Wyoming/03/2003(H3N2)); test: Binding affinity to Influenza A virus (A/Wyoming/03/2003(H3N2)) H3 hemagglutinin at 200 uM after 2 hrs by avidin-biotin-peroxidase complex method in presence of Neu5Ac
[8] = test system: Influenza A virus (A/Wyoming/03/2003(H3N2)); test: Binding affinity to Influenza A virus (A/Wyoming/03/2003(H3N2)) H3 hemagglutinin after 2 hrs by avidin-biotin-peroxidase complex method in presence of Neu5Ac
[9] = test system: Influenza A virus (A/Wyoming/03/2003(H3N2)); test: Binding affinity to Influenza A virus (A/Wyoming/03/2003(H3N2)) H3 hemagglutinin after 2 hrs by avidin-biotin-peroxidase complex method in presence of glucose
[10] = Binding affinity to Influenza A virus (A/Aichi/2/68(H3N2)) H3 hemagglutinin after 2 hrs by NMR method; parameters: species or system Influenza A virus (A/Aichi/2/1968(H3N2))
[11] = test system: Influenza A virus (A/Wyoming/03/2003(H3N2)); test: Binding affinity to Influenza A virus (A/Wyoming/03/2003(H3N2)) H3 hemagglutinin at 400 uM after 2 hrs by avidin-biotin-peroxidase complex method relative to 7-1 peptide

For `CC(C)C[C@H](NC(=O)[C@H](C)NC(=O)[C@H](CCCNC(=N)N)NC(=O)[C@@H](NC(=O)[C@@H](N)CC(C)C)C(C)C)C(=O)N[C@@H](C)C(=O)N[C@@H](CC(C)C)C(=O)N[C@@H](CCCCNC(=O)CCCC[C@@H]1SC[C@H]2NC(=O)N[C@@H]12)C(N)=O` (H-LVRALALK(Biotinyl(3aR,4S,6aS))-NH2), the Activity [1] was “inactive”.
With `CC(C)C[C@H](NC(=O)[C@H](C)NC(=O)[C@H](CC(C)C)NC(=O)[C@@H]1CCCN1C(=O)[C@H](C)NC(=O)[C@@H](NC(=O)[C@@H](N)CC(C)C)C(C)C)C(=O)N[C@@H](CCCCNC(=O)CCCC[C@@H]1SC[C@H]2NC(=O)N[C@@H]12)C(N)=O` (H-LVAPLALK(Biotinyl(3aR,4S,6aS))-NH2) the Activity [1] was “inactive”.
For `CCCCCCCCCCCCCCCCCC(=O)N[C@@H](CC(C)C)C(=O)N[C@H](C(=O)N[C@@H](CCCNC(=N)N)C(=O)N1CCC[C@H]1C(=O)N[C@@H](CC(C)C)C(=O)N[C@@H](C)C(=O)N[C@@H](CC(C)C)C(N)=O)C(C)C` (Stearoyl-LVRPLAL-NH2), the IC50 [2] was 6.4 µM and the IC50 [3] was 101 µM.
In the case of `CC(C)C[C@H](NC(=O)[C@H](C)NC(=O)[C@H](CC(C)C)NC(=O)[C@@H]1CCCN1C(=O)[C@H](CCCNC(=N)N)NC(=O)[C@@H](NC(=O)[C@@H](N)CC(C)C)C(C)C)C(=O)N[C@@H](CCCCNC(=O)CCCC[C@@H]1SC[C@@H]2NC(=O)N[C@@H]21)C(N)=O` (H-LVRPLALK(Biotin)-NH2), the Kd [4] is reported as 92 µM, the Activity [5] is reported as “Dose-dependent effect” and the Kd [6] is reported as 194 µM. For the same molecule, the Activity [1] was “Dose-dependent effect” and the Activity [7] was “inactive”.
With `CC(C)C[C@H](NC(=O)[C@H](C)NC(=O)[C@H](CC(C)C)NC(=O)[C@@H]1CCCN1C(=O)[C@H](Cc1cnc[nH]1)NC(=O)[C@@H](NC(=O)[C@@H](N)CC(C)C)C(C)C)C(=O)N[C@@H](CCCCNC(=O)CCCC[C@@H]1SC[C@H]2NC(=O)N[C@@H]12)C(N)=O` (H-LVHPLALK(Biotinyl(3aR,4S,6aS))-NH2) the Activity [1] was “Active”.
In the case of `CC(C)C[C@H](NC(=O)[C@H](C)NC(=O)[C@H](CC(C)C)NC(=O)[C@@H]1CCCN1C(=O)[C@H](CCCNC(=N)N)NC(=O)[C@H](C)NC(=O)[C@@H](N)CC(C)C)C(=O)N[C@@H](CCCCNC(=O)CCCC[C@@H]1SC[C@H]2NC(=O)N[C@@H]12)C(N)=O` (H-LARPLALK(Biotinyl(3aR,4S,6aS))-NH2), the Activity [8] is reported as “inactive” and the Activity [9] is reported as “Active”.
For `CC(C)C[C@H](NC(=O)[C@H](C)NC(=O)[C@H](C)NC(=O)[C@@H]1CCCN1C(=O)[C@H](CCCNC(=N)N)NC(=O)[C@@H](NC(=O)[C@@H](N)CC(C)C)C(C)C)C(=O)N[C@@H](CCCCNC(=O)CCCC[C@@H]1SC[C@H]2NC(=O)N[C@@H]12)C(N)=O` (H-LVRPAALK(Biotinyl(3aR,4S,6aS))-NH2), the Activity [8] was “inactive” and the Activity [9] was “Active”.
With `CC(=O)N[C@H]1[C@H]([C@H](O)[C@H](O)CO)O[C@@](O[C@H]2[C@@H](O)[C@@H](CO)O[C@@H](O[C@H]3[C@H](O)[C@@H](O)[C@H](O)O[C@@H]3CO)[C@@H]2O)(C(=O)O)C[C@@H]1O` the Kd [4] was greater than 200 µM, the Kd [6] was greater than 400 µM and the Kd [10] was 3200 µM.
`CC(C)C[C@H](NC(=O)CNC(=O)[C@H](CCCNC(=N)N)NC(=O)[C@@H](NC(=O)[C@@H](N)CC(C)C)C(C)C)C(=O)N[C@@H](C)C(=O)N[C@@H](CC(C)C)C(=O)N[C@@H](CCCCNC(=O)CCCC[C@@H]1SC[C@H]2NC(=O)N[C@@H]12)C(N)=O` (H-LVRGLALK(Biotinyl(3aR,4S,6aS))-NH2) gave an Activity [11] of 17%.
For `CC(C)C[C@H](NC(=O)[C@H](C)NC(=O)[C@H](CC(C)C)NC(=O)[C@@H]1CCCN1C(=O)[C@H](CCCNC(=N)N)NC(=O)[C@H](CCC(N)=O)NC(=O)[C@@H](N)CC(C)C)C(=O)N[C@@H](CCCCNC(=O)CCCC[C@@H]1SC[C@H]2NC(=O)N[C@@H]12)C(N)=O` (H-LQRPLALK(Biotinyl(3aR,4S,6aS))-NH2), the Activity [1] was “Active”.
In the case of `CC(C)C[C@H](NC(=O)[C@H](CC(=O)O)NC(=O)[C@H](CC(C)C)NC(=O)[C@@H]1CCCN1C(=O)[C@H](CCCNC(=N)N)NC(=O)[C@@H](NC(=O)[C@@H](N)CC(C)C)C(C)C)C(=O)N[C@@H](CCCCNC(=O)CCCC[C@@H]1SC[C@H]2NC(=O)N[C@@H]12)C(N)=O` (H-LVRPLDLK(Biotinyl(3aR,4S,6aS))-NH2), the Activity [1] is reported as “Active”.
Work on `CC(C)C[C@H](NC(=O)[C@H](C)NC(=O)[C@H](CC(C)C)NC(=O)[C@@H]1CCCN1C(=O)[C@H](CC(=O)O)NC(=O)[C@@H](NC(=O)[C@@H](N)CC(C)C)C(C)C)C(=O)N[C@@H](CCCCNC(=O)CCCC[C@@H]1SC[C@H]2NC(=O)N[C@@H]12)C(N)=O` (H-LVDPLALK(Biotinyl(3aR,4S,6aS))-NH2) yielded an Activity [11] of 19%.
For `CC(C)C[C@H](NC(=O)[C@@H]1CCCN1C(=O)[C@H](CCCNC(=N)N)NC(=O)[C@@H](NC(=O)[C@@H](N)CC(C)C)C(C)C)C(=O)N[C@@H](C)C(=O)N[C@@H](C)C(=O)N[C@@H](CCCCNC(=O)CCCC[C@@H]1SC[C@H]2NC(=O)N[C@@H]12)C(N)=O` (H-LVRPLAAK(Biotinyl(3aR,4S,6aS))-NH2), the Activity [8] was “inactive” and the Activity [9] was “Active”.
With `CC(C)C[C@H](NC(=O)[C@H](C)NC(=O)[C@H](CC(C)C)NC(=O)[C@@H]1CCCN1C(=O)[C@H](CCCNC(=N)N)NC(=O)[C@@H](NC(=O)[C@@H](N)CC(=O)O)C(C)C)C(=O)N[C@@H](CCCCNC(=O)CCCC[C@@H]1SC[C@H]2NC(=O)N[C@@H]12)C(N)=O` (H-DVRPLALK(Biotinyl(3aR,4S,6aS))-NH2) the Activity [1] was “Active”.
Work on `CC(=O)N[C@H]1[C@H]([C@H](O)[C@H](O)CO)O[C@@](OC[C@H]2O[C@@H](O[C@H]3[C@H](O)[C@@H](O)[C@H](O)O[C@@H]3CO)[C@H](O)[C@@H](O)[C@H]2O)(C(=O)O)C[C@@H]1O` yielded a Kd [4] greater than 500 µM, a Kd [6] greater than 500 µM and a Kd [10] of 2100 µM.
In the case of `CC(C)C[C@H](NC(=O)[C@H](C)NC(=O)[C@H](Cc1c[nH]c2ccccc12)NC(=O)[C@@H]1CCCN1C(=O)[C@H](CCCNC(=N)N)NC(=O)[C@@H](NC(=O)[C@@H](N)CC(C)C)C(C)C)C(=O)N[C@@H](CCCCNC(=O)CCCC[C@@H]1SC[C@H]2NC(=O)N[C@@H]12)C(N)=O` (H-LVRPWALK(Biotinyl(3aR,4S,6aS))-NH2), the Activity [1] is reported as “Active”.
For `CC(C)C[C@H](NC(=O)[C@H](C)NC(=O)[C@H](CC(C)C)NC(=O)[C@H](Cc1cnc[nH]1)NC(=O)[C@H](CCCNC(=N)N)NC(=O)[C@@H](NC(=O)[C@@H](N)CC(C)C)C(C)C)C(=O)N[C@@H](CCCCNC(=O)CCCC[C@@H]1SC[C@H]2NC(=O)N[C@@H]12)C(N)=O` (H-LVRHLALK(Biotinyl(3aR,4S,6aS))-NH2), the Activity [1] was “Active”.
With `CC(C)C[C@H](NC(=O)[C@H](C)NC(=O)[C@H](CC(C)C)NC(=O)[C@@H]1CCCN1C(=O)[C@H](CCCNC(=N)N)NC(=O)[C@@H](NC(=O)[C@H](C)N)C(C)C)C(=O)N[C@@H](CCCCNC(=O)CCCC[C@@H]1SC[C@H]2NC(=O)N[C@@H]12)C(N)=O` (H-AVRPLALK(Biotinyl(3aR,4S,6aS))-NH2) the Activity [8] was “inactive” and the Activity [9] was “Active”.
